The compounds below were run against T1, SHP2 protein (Homo sapiens, UniProt Q06124) (assay: Degradation activity on SHP2 protein in MV-411 cells (Western blot, DC50)). Settings: MV411 cells, 24 hours, read-out: Degradation activity for differenct cell lines MV411 (DC50).
T1 sequence (Q06124 1-593): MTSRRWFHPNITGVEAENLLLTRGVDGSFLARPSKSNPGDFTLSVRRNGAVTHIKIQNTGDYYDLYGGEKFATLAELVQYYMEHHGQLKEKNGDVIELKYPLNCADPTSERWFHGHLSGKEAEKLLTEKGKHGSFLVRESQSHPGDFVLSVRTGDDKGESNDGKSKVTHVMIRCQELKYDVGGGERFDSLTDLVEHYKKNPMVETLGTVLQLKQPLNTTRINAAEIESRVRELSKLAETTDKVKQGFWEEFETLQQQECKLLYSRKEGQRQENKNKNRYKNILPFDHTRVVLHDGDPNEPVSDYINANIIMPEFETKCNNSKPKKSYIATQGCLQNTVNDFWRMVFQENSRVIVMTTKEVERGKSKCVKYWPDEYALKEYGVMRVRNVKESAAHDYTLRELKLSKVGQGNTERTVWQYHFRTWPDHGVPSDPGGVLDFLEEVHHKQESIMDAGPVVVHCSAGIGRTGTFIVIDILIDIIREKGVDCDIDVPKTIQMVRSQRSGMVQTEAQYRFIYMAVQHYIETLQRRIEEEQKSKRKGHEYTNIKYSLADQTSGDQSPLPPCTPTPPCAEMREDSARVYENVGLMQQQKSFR
Type: cell-based
Design: endogenous in cells
Method: • MV-411 cell line (COBIER, CBP-60522) • FBS (GEMINI, Cat. No. 900-108) • 0.01M PBS (Biosharp, Cat. No. 162262) • IMDM (Hyclone, Cat. No. SH30228.01) • Penicillin-Streptomycin (Gibco, Cat. No. 15140122) • DMSO (Sigma, Cat. No. D5879) • Centrifuge Tube, 15 ml (Excell Bio, Cat. No. CS015-0001) • Cell Culture Dish, (WHB, Cat. No. CS016-0128) • 12-well cell culture cluster (Corning, Cat. No. 3513) • RIPA lysate buffer (Thermo, Cat. No. 89900) • Protein Loding Buffer (Beyotime, Cat. No. P0015L) • BCA Protein Assay Kit (EpiZyme, Cat. No. ZJ102) • SDS-PAGE Fast Preparation Kit (EpiZyme, Cat. No. PG112) • Anti-GAPDH (14C10) Rabbit mAb (CST, Cat. No. 2118L) • Anti-SHP2 rabbit mAb (CST, Cat. No. 37525) • Peroxidase Affinipure (HRP) Goat Anti-Rabbit IgG (Zen Bioscience, Cat. No. 511203) • TBST (Biosharp, Cat. No. BL601A) • ECL chemiluminescence kit (4A Biotech, Cat. No. 4AW011-200)
• (1) Cell culture medium: IMIDM medium+10% FBS+1% Pen Strep; • (2) PBS buffer: PBS powder was dissolved in 2 L of ultrapure water and sterilized; • (3) Cell lysate: RIPA lysate buffer is added with protease inhibitors at a ratio of 1:1000 before use.
(1) MV-411 cells were cultured in the cell culture medium, and then well-growing cells were selected and inoculated in a 12-well plate, with 1 mL/well and 1×10^6 cells/well. The plate was incubated overnight in a 5% CO2 cell incubator at 37° C.
(2) 10 mM storage solution of each drug was prepared using dimethylsulfoxide (DMSO). The stock solution was diluted gradually with DMSO before use, and then 1 μL of the compound solution was added to the cell culture well (to ensure that the DMSO concentration in the culture system was […]), so that the final drug concentration is 100 nM, 10 nM, 3 nM, 1 nM, 0.3 nM, and 0.1 nM. Two wells were set for each concentration. The plate was gently shaken and mixed. Additionally, negative control wells (containing an equal amount of DMSO) and positive control wells were included.
(3) After 24 hours of cultivation, the cells were lysed using RIPA cell lysate, and the proteins were extracted. The protein concentration was measured using a BCA assay kit. 5× concentrated protein buffer was loaded, heated at 100° C. for 5 min, and then the sample was stored at −20° C.
(4) For each well, 30 μg of protein was loaded to polyacrylamide gel for electrophoresis.
(5) The protein was transferred from polyacrylamide gel to PVDF membrane, and sealed at room temperature with 5% skimmed milk for 1 h, which was then incubated with the primary antibodies (Anti-SHP2 rabbit mAb and Anti-GAPDH rabbit mAb) at 4° C. overnight. The membrane was washed three times with TBST solution, 10 minutes for each time. After that, the membrane was incubated with the secondary antibodies (horseradish peroxidase labeled goat anti-rabbit IgG) at room temperature for 2 h, and then washed three times with TBST solution, 10 minutes for each time, followed by exposure.
(6) The images were analyzed with Image J grayscale, and the degradation ratio of protein bands in the test group was calculated, based on the negative control group (DMSO) (100%).
(7) Using the Dose-response-inhibition equation in the data processing software GraphPad Prism 8, the DC50 value was obtained (which represents the drug concentration corresponding to 50% degradation of the target protein).
Finally, ECL detection solution was added for color development, and photos were taken with an automatic chemiluminescence instrument, so as to collect images and analyze them.

Compound | DC50 [nM]
Cc1nc2cccc(NC(=O)CCCCCCCCN3CCN(C(=O)CCC(=O)Nc4cccc(Sc5cnc(N6CCC(C)(N)CC6)cn5)c4)CC3)c2c(=O)n1C1CCC(=O)NC1=O (stereo not drawn) [Compound 35] | > 1000
CC1(N)CCN(c2cnc(Sc3cccc(NC(=O)CCC(=O)NCCOCCOCC(=O)NCc4ccc5c(c4)CN(C4CCC(=O)NC4=O)C5=O)c3)cn2)CC1 (stereo not drawn) [Compound 19] | > 1000
NC1(CO)CCN(c2cnc(Sc3cccc(NC(=O)CCCCCCCNc4ccc(-c5ccc(C(=O)NCc6ccc7c(c6)C(=O)N(C6CCC(=O)NC6=O)C7)nn5)cc4)c3)cn2)CC1 (stereo not drawn) [Compound 201] | 100 to 1000
CN(Cc1ccc2c(c1)CN(C1CCC(=O)NC1=O)C2=O)C(=O)c1ccc(N2CCC3(CN(CCCCCC(=O)Nc4cccc(Sc5cnc(N6CCC(C)(N)CC6)cn5)c4)C3)C2)nn1 (stereo not drawn) [Compound 165] | < 100
CC1(N)CCN(c2cnc(Sc3cccc(NC(=O)CC(=O)Nc4ccc5c(c4)C(=O)N(C4CCC(=O)NC4=O)C5)c3)cn2)CC1 (stereo not drawn) [Compound 9] | > 1000
Cc1ncsc1-c1ccc([C@H](C)NC(=O)[C@@H]2C[C@@H](O)CN2C(=O)[C@@H](NC(=O)c2cnc(N3CCC4(CN(CCCCC(=O)Nc5cccc(Sc6cnc(N7CCC(C)(N)CC7)cn6)c5)C4)C3)nc2)C(C)(C)C)cc1 [Compound 88] | < 100
C[C@@H]1OCC2(CCN(c3cnc(Sc4cccc(NC(=O)CCN5CC6(CCN(c7ccc(COc8cccc9c8CN(C8CCC(=O)NC8=O)C9=O)nn7)C6)C5)c4)cn3)CC2)[C@@H]1N (stereo partly drawn) [Compound 132] | < 100
Cc1ncsc1-c1ccc([C@H](C)NC(=O)[C@@H]2C[C@@H](O)CN2C(=O)[C@@H](NC(=O)CCCCCCCCCCCC(=O)Nc2cccc(Sc3cnc(N4CCC(C)(N)CC4)cn3)c2)C(C)(C)C)cc1 [Compound 58] | 100 to 1000
Cc1ncsc1-c1ccc([C@H](C)NC(=O)[C@@H]2C[C@@H](O)CN2C(=O)[C@@H](NC(=O)CCCCCCCCCC(=O)Nc2cccc(Sc3cnc(N4CCC(C)(N)CC4)cn3)c2)C(C)(C)C)cc1 [Compound 56] | > 1000
CN(Cc1ccc2c(c1)CN(C1CCC(=O)NC1=O)C2=O)C(=O)c1cnc(N2CCC3(CN(CCCCCCC(=O)Nc4cccc(Sc5cnc(N6CCC(C)(N)CC6)cn5)c4)C3)C2)cn1 (stereo not drawn) [Compound 180] | < 100
CC1(N)CCN(c2cnc(Sc3cccc(NC(=O)CCCCCCCCC(=O)NCc4ccc5c(c4)CN(C4CCC(=O)NC4=O)C5=O)c3)cn2)CC1 (stereo not drawn) [Compound 53] | > 1000
CC1(N)CCN(c2cnc(Sc3cccc(NC(=O)C4CN(CCCCCCCCCCC(=O)NCc5ccc6c(c5)CN(C5CCC(=O)NC5=O)C6=O)C4)c3)cn2)CC1 (stereo not drawn) [Compound 43] | > 1000
Cc1ncsc1-c1ccc([C@H](C)NC(=O)[C@@H]2C[C@@H](O)CN2C(=O)[C@@H](NC(=O)CCCCCCCCCCCCC(=O)Nc2cccc(Sc3cnc(N4CCC(C)(N)CC4)cn3)c2)C(C)(C)C)cc1 [Compound 50] | < 100
CC(C)(C)OC(=O)NCC1(O)C2CCC1CN(c1cnc(Sc3cccc(NC(=O)CCCCCCN4CC5(CCN(c6ccc(C(=O)NCc7ccc8c(c7)CN(C7CCC(=O)NC7=O)C8=O)nn6)C5)C4)c3)cn1)C2 (stereo not drawn) [Compound 203] | > 1000
CC1(N)CCN(c2cnc(Sc3cccc(NC(=O)CCN4CC5(CCN(CCCCCC(=O)NCc6cccc7c6CN(C6CCC(=O)NC6=O)C7=O)C5)C4)c3)cn2)CC1 (stereo not drawn) [Compound 45] | 100 to 1000
NCC1(O)C2CCC1CN(c1cnc(Sc3cccc(NC(=O)CCCCCCN4CC5(CCN(c6ccc(C(=O)NCc7ccc8c(c7)CN(C7CCC(=O)NC7=O)C8=O)nn6)C5)C4)c3)cn1)C2 (stereo not drawn) [Compound 204] | > 1000
Cc1ncsc1-c1ccc([C@H](C)NC(=O)[C@@H]2C[C@@H](O)CN2C(=O)[C@@H](NC(=O)c2cnc(N3CCN(CCCCCCCCC(=O)Nc4cccc(Sc5cnc(N6CCC(C)(C(N)=O)CC6)cn5)c4)CC3)nc2)C(C)(C)C)cc1 [Compound 60] | > 1000
CC1(N)CCN(c2cnc(Sc3cccc(NC(=O)CCC(=O)NCCOCCOCCOCC(=O)Nc4ccc5c(c4)C(=O)N(C4CCC(=O)NC4=O)C5)c3)cn2)CC1 (stereo not drawn) [Compound 22] | > 1000
CN(Cc1ccc2c(c1)CN(C1CCC(=O)NC1=O)C2=O)C(=O)c1ccc(N2CCC3(CN(CCCCCCC(=O)Nc4cccc(Sc5cnc(N6CCC(C)(N)CC6)cn5)c4)C3)C2)nn1 (stereo not drawn) [Compound 152] | < 100
CN(Cc1ccc2c(c1)CN(C1CCC(=O)NC1=O)C2=O)C(=O)c1ccc(N2CC[C@@H](OCCCCCCCC(=O)Nc3cccc(Sc4cnc(N5CCC(C)(N)CC5)cn4)c3)[C@@H](F)C2)nn1 (stereo partly drawn) [Compound 163] | < 100
NC1(CF)CCN(c2cnc(Sc3ccc(NC(=O)COCCCCCN4CC5(CCN(c6ccc(C(=O)NCc7ccc8c(c7)CN(C7CCC(=O)NC7=O)C8=O)nn6)C5)C4)cc3)cn2)CC1 (stereo not drawn) [Compound 123] | 100 to 1000
Cc1nc2cccc(NC(=O)COCCOCCNC(=O)CCC(=O)Nc3cccc(Sc4cnc(N5CCC(C)(N)CC5)cn4)c3)c2c(=O)n1C1CCC(=O)NC1=O (stereo not drawn) [Compound 20] | > 1000
Cc1ncsc1-c1ccc([C@H](C)NC(=O)[C@@H]2C[C@@H](O)CN2C(=O)[C@@H](NC(=O)[C@@H]2C[C@H]2C(=O)N2CCC3(CN(C(=O)CCCCCC(=O)Nc4cccc(Sc5cnc(N6CCC(C)(N)CC6)cn5)c4)C3)C2)C(C)(C)C)cc1 [Compound 130] | < 100
CN[C@H](C)C(=O)N[C@@H](C(=O)N1C[C@@H](NC(=O)c2ccc(N3CC(C)N(CCCCCCCCC(=O)Nc4cccc(Sc5cnc(N6CCC(C)(N)CC6)cn5)c4)C(C)C3)nn2)C[C@@H]1C(=O)Nc1c(F)cccc1F)C(C)(C)C (stereo partly drawn) [Compound 139] | > 1000
CC1(N)CCN(c2cnc(Sc3cccc(NC(=O)CC(=O)Nc4cccc5c4CN(C4CCC(=O)NC4=O)C5=O)c3)cn2)CC1 (stereo not drawn) [Compound 5] | > 1000
CC1(N)CCN(c2cnc(Sc3cccc(NC(=O)CCCCCCCN4CC5(CC(n6cc(C#Cc7ccc8c(c7)CN(C7CCC(=O)NC7=O)C8=O)cn6)C5)C4)c3)cn2)CC1 (stereo not drawn) [Compound 172] | < 100
CC1(N)CCN(c2cnc(Sc3cccc(NC(=O)CCN4CC5(CCN(c6ccc(COc7cccc8c7CN(C7CCC(=O)NC7=O)C8=O)nn6)C5)C4)c3)cn2)CC1 (stereo not drawn) [Compound 133] | > 1000
CN[C@H](C)C(=O)N[C@@H](C(=O)N1C[C@@H](NC(=O)c2ccc(N3CC4CCC(C3)N4CCCCCCCCC(=O)Nc3cccc(Sc4cnc(N5CCC(N)C(F)C5)cn4)c3)nn2)C[C@@H]1C(=O)Nc1c(F)cccc1F)C(C)(C)C (stereo partly drawn) [Compound 142] | > 1000
CC1(N)CCN(c2cnc(Sc3cccc(NC(=O)CCCCCN4CC5(CCN(c6ccc(C(=O)NCc7ccc8c(c7)CN(C7CCC(=O)NC7=O)C8=O)nn6)C5)C4)c3)cn2)CC1 (stereo not drawn) [Compound 164] | < 100
C[C@@H]1OCC2(CCN(c3cnc(Sc4cccc(NC(=O)CCCCCCCN5CC6(CCN(Cc7ccc(COc8cccc9c8CN(C8CCC(=O)NC8=O)C9=O)cc7)C6)C5)c4)cn3)CC2)[C@@H]1N (stereo partly drawn) [Compound 113] | > 1000

From patent US20240383908A1, “SYNTHESIS AND APPLICATION OF PHOSPHATASE DEGRADER” (HINOVA PHARMACEUTICALS INC., priority 2021, published 2024)
